≈ marks a conversion by molar mass, not a printed value.
Legend:
[1] = test system: Klebsiella pneumoniae; assay: Antibacterial activity against Klebsiella pneumoniae after 24 hrs by two fold serial dilution method; format: functional
[2] = test system: Staphylococcus aureus; assay: Antibacterial activity against methicillin-resistant Staphylococcus aureus assessed as growth inhibition at 1 mg/well after 24 hrs by Well method; format: functional
[3] = test system: Proteus vulgaris; assay: Antibacterial activity against Proteus vulgaris after 24 hrs by two fold serial dilution method; format: functional
[4] = test system: Klebsiella aerogenes; assay: Antibacterial activity against Enterobacter aerogenes assessed as growth inhibition at 1 mg/well after 24 hrs by Well method; format: functional
[5] = test system: Pseudomonas aeruginosa; assay: Antibacterial activity against Pseudomonas aeruginosa after 24 hrs by two fold serial dilution method; format: functional
[6] = test system: Klebsiella pneumoniae; assay: Antibacterial activity against Klebsiella pneumoniae assessed as growth inhibition at 1 mg/well after 24 hrs by Well method; format: functional
[7] = test system: Bacillus subtilis; assay: Antibacterial activity against Bacillus subtilis after 24 hrs by two fold serial dilution method; format: functional
[8] = test system: Bacillus subtilis; assay: Antibacterial activity against Bacillus subtilis assessed as growth inhibition at 1 mg/well after 24 hrs by Well method; format: functional
[9] = test system: Staphylococcus aureus; assay: Antibacterial activity against methicillin-resistant Staphylococcus aureus after 24 hrs by two fold serial dilution method; format: functional
[10] = test system: Salmonella typhimurium; assay: Antibacterial activity against Salmonella typhimurium after 24 hrs by two fold serial dilution method; format: functional, Salmonella enterica subsp. enterica serovar Typhimurium; details: Salmonella enterica
[11] = test system: Salmonella enterica subsp. enterica serovar Paratyphi B; assay: Antibacterial activity against Salmonella paratyphi B after 24 hrs by two fold serial dilution method; format: functional
[12] = test system: Aspergillus flavus; assay: Antifungal activity against Aspergillus flavus assessed as growth inhibition at 1 mg/well after 48 hrs by Well method; format: functional
[13] = test system: Micrococcus luteus; assay: Antibacterial activity against Micrococcus luteus assessed as growth inhibition at 1 mg/well after 24 hrs by Well method; format: functional
[14] = test system: Micrococcus luteus; assay: Antibacterial activity against Micrococcus luteus after 24 hrs by two fold serial dilution method; format: functional
[15] = test system: Staphylococcus epidermidis; assay: Antibacterial activity against Staphylococcus epidermidis after 24 hrs by two fold serial dilution method; format: functional
[16] = test system: Malassezia pachydermatis; assay: Antifungal activity against Malassezia pachydermatis assessed as growth inhibition at 1 mg/well after 48 hrs by Well method; format: functional
[17] = test system: Salmonella typhimurium; assay: Antibacterial activity against Salmonella typhimurium assessed as growth inhibition at 1 mg/well after 24 hrs by Well method; format: functional, Salmonella enterica subsp. enterica serovar Typhimurium
[18] = test system: Shigella flexneri; assay: Antibacterial activity against Shigella flexneri assessed as growth inhibition at 1 mg/well after 24 hrs by Well method; format: functional
[19] = test system: Shigella flexneri; assay: Antibacterial activity against Shigella flexneri after 24 hrs by two fold serial dilution method; format: functional
[20] = test system: Proteus vulgaris; assay: Antibacterial activity against Proteus vulgaris assessed as growth inhibition at 1 mg/well after 24 hrs by Well method; format: functional
[21] = test system: Aspergillus flavus; assay: Antifungal activity against Aspergillus flavus after 48 to 72 hrs by two fold serial dilution method; format: functional
[22] = test system: Staphylococcus aureus; assay: Antibacterial activity against Staphylococcus aureus after 24 hrs by two fold serial dilution method; format: functional
[23] = test system: Klebsiella aerogenes; assay: Antibacterial activity against Enterobacter aerogenes after 24 hrs by two fold serial dilution method; format: functional
[24] = test system: Staphylococcus aureus; assay: Antibacterial activity against Staphylococcus aureus assessed as growth inhibition at 1 mg/well after 24 hrs by Well method; format: functional
[25] = test system: Staphylococcus epidermidis; assay: Antibacterial activity against Staphylococcus epidermidis assessed as growth inhibition at 1 mg/well after 24 hrs by Well method; format: functional
[26] = test system: Pseudomonas aeruginosa; assay: Antibacterial activity against Pseudomonas aeruginosa assessed as growth inhibition at 1 mg/well after 24 hrs by Well method; format: functional
[27] = test system: Salmonella enterica subsp. enterica serovar Paratyphi B; assay: Antibacterial activity against Salmonella paratyphi B assessed as growth inhibition at 1 mg/well after 24 hrs by Well method; format: functional
[28] = test system: Candida albicans; assay: Antifungal activity against Candida albicans after 48 to 72 hrs by two fold serial dilution method; format: functional
[29] = test system: Candida albicans; assay: Antifungal activity against Candida albicans assessed as growth inhibition at 1 mg/well after 48 hrs by Well method; format: functional
[30] = test system: Malassezia pachydermatis; assay: Antifungal activity against Malassezia pachydermatis after 48 to 72 hrs by two fold serial dilution method; format: functional

| Compound | inhibition zone (IZ) [2] [mm] | MIC [3] [µg/mL] | inhibition zone (IZ) [4] [mm] | MIC [5] [µg/mL] | MIC [7] [µg/mL] | inhibition zone (IZ) [8] [mm] | MIC [9] [µg/mL] | MIC [10] [µg/mL] | MIC [11] [µg/mL] | inhibition zone (IZ) [13] [mm] | MIC [14] [µg/mL] | MIC [15] [µg/mL] | inhibition zone (IZ) [17] [mm] | inhibition zone (IZ) [18] [mm] | MIC [19] [µg/mL] | inhibition zone (IZ) [20] [mm] | MIC [22] [µg/mL] | MIC [23] [µg/mL] | inhibition zone (IZ) [24] [mm] | inhibition zone (IZ) [26] [mm] | also measured |
| --- | --- | --- | --- | --- | --- | --- | --- | --- | --- | --- | --- | --- | --- | --- | --- | --- | --- | --- | --- | --- | --- |
| C[C@H](NCCC(=O)c1ccc(Cl)cc1)[C@H](O)c1ccccc1.Cl | 29 | 25 | 25 | 25 | 25 | 19 | 25 | 50 | > 50 | 28 | 50 | 25 | 24 | 22 | 25 | 25 | 50 | 50 | 26 | 20 | MIC [1]: 50 µg/mL; inhibition zone (IZ) [6]: 11 mm; inhibition zone (IZ) [12]: 15 mm; inhibition zone (IZ) [16]: 12 mm; MIC [21]: 50 µg/mL; inhibition zone (IZ) [25]: 28 mm |
| COc1ccc(C(=O)CCN[C@@H](C)[C@H](O)c2ccccc2)cc1.Cl | 20 | 50 | 20 | 25 | 25 | 19 | 50 | 50 | 50 | 23 | 25 | 25 | 17 | 21 | 50 | 21 | 50 | 50 | 18 | 20 | MIC [1]: > 50 µg/mL; inhibition zone (IZ) [6]: 12 mm; inhibition zone (IZ) [27]: 20 mm; inhibition zone (IZ) [12]: 10 mm; MIC [21]: > 50 µg/mL; inhibition zone (IZ) [25]: 22 mm |
| C[C@@H](NCCC(=O)c1ccc(Cl)cc1Cl)[C@@H](O)c1ccccc1.Cl | 34 | 3.13 | 35 | 6.25 | 6.25 | 26 | 3.13 | 3.13 | 50 | 28 | 6.25 | 3.13 | 34 | 32 | 3.13 | 33 | 3.13 | 3.13 | 37 | 24 | inhibition zone (IZ) [27]: 16 mm; inhibition zone (IZ) [25]: 34 mm |
| C[C@H](NCCC(=O)c1cccc([N+](=O)[O-])c1)[C@H](O)c1ccccc1.Cl | 15 | 50 | 16 | 50 | 50 | 15 | 50 | 50 | > 50 | 19 | 50 | 50 | 17 | 16 | 50 | 18 | 50 | 50 | 15 | 16 | inhibition zone (IZ) [27]: 12 mm; MIC [28]: > 50 µg/mL; inhibition zone (IZ) [29]: 12 mm; MIC [30]: > 50 µg/mL; inhibition zone (IZ) [16]: 13 mm; inhibition zone (IZ) [25]: 19 mm |
| CN[C@@H]1[C@H](O[C@H]2[C@H](O[C@H]3[C@H](O)[C@@H](O)[C@H](N=C(N)N)[C@@H](O)[C@@H]3N=C(N)N)O[C@@H](C)[C@]2(O)C=O)O[C@@H](CO)[C@H](O)[C@H]1O [STREPTOMYCIN] | 30 | 6.25 (≈ 10.7 µM) | 22 | 25 (≈ 43 µM) | 25 (≈ 43 µM) | 22 | 6.25 (≈ 10.7 µM) | 6.25 (≈ 10.7 µM) | 30 (≈ 51.6 µM) | 26 | 6.25 (≈ 10.7 µM) | – | 24 | 30 | 6.25 (≈ 10.7 µM) | 30 | 6.25 (≈ 10.7 µM) | 25 (≈ 43 µM) | 14 | 30 | MIC [1]: 25 µg/mL (≈ 43 µM); inhibition zone (IZ) [6]: 20 mm; inhibition zone (IZ) [27]: 18 mm |

Source: ChEMBL document CHEMBL3616371, “Synthesis of BF₃ catalyzed Mannich derivatives with excellent ee from phenylpropanolamine, study of their antimicrobial activity and molecular docking” (2015)
